One experiment concerns the target T1, EGFR (L858R T790M C797S) (Homo sapiens, UniProt P00533, C797S/L858R/T790M).
T1 construct: purchased SignalChem E10-122VG
Nature of the experiment: Biochemical EGFR inhibition assay (Caliper mobility shift), EGFR LRTMCS mutant. The settings on record: LRTMCS (PH) IC50 (nM) @ 1 mM ATP (Num). The method in brief: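 Kinase reactions proceed at 25° C. to 10%–20% conversion of total peptide, are terminated with 35 mM EDTA, and the phosphopeptide is resolved from substrate by electrophoretic mobility shift. Apparent IC50 values come from plotting percent activity against log compound concentration.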

Experiment [1] addresses T2, EGFR L858R T790M in NCI-H1975 cell line (Homo sapiens, UniProt P00533, L858R/T790M).
T2 construct: host or cells: NCI-H1975
Nature of the experiment: NCI-H1975 pEGFR AlphaLISA assay. It is filed as cell-based. Particulars: NCI-H1975 cells (EGFR L858R T790M), p-EGFR (Tyr1068), 4-5 hours incubation; read-out: Ext pEGFR H1975 GMean IC50 (nM) Protocol: @Pharmaron AlphaLISA (Num). The method in brief: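 Phospho-EGFR measured by AlphaLISA after overnight donor-bead incubation; IC50 from percent pEGFR inhibition versus log concentration.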

Bounds are passed on as bounds.

The record followed here is US20240299387A1, “HETEROCYCLIC EGFR INHIBITORS FOR USE IN THE TREATMENT OF CANCER” (Blueprint Medicines Corporation, priority 2021, published 2024).

As a reminder, the IC50 is the concentration needed to halve the response being measured.

T2 sequence (P00533 25-1210 T790M/L858R): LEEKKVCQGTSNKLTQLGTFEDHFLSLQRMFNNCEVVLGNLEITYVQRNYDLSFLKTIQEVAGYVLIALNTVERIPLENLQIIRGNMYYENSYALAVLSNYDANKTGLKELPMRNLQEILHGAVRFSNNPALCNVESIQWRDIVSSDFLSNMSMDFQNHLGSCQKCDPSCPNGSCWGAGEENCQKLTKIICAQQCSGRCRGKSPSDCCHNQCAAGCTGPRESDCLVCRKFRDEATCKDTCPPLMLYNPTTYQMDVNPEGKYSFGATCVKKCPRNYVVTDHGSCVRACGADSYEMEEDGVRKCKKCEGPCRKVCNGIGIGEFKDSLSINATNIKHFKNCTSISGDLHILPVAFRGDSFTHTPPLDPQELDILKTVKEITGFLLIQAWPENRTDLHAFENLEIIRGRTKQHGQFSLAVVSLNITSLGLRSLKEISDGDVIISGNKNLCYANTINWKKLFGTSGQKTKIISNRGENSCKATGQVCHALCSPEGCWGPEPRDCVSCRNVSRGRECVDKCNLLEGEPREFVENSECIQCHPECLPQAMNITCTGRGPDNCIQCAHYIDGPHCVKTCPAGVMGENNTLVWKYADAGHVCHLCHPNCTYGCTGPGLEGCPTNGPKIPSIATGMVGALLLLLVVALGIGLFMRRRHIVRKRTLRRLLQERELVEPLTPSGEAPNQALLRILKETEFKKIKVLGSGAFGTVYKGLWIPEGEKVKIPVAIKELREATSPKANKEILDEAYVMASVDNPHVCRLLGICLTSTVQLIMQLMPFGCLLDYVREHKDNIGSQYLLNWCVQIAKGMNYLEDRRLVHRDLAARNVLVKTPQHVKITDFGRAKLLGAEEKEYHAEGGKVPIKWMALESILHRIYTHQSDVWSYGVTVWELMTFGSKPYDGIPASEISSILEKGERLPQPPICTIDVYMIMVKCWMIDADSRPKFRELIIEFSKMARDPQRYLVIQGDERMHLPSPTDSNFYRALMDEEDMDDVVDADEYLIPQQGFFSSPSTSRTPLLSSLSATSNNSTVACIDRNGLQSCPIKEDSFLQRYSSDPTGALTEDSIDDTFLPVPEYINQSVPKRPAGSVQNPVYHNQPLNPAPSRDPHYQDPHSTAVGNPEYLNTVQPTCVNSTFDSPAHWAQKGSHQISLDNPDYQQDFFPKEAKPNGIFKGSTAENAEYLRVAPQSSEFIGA
T1 sequence (P00533 25-1210 T790M/C797S/L858R): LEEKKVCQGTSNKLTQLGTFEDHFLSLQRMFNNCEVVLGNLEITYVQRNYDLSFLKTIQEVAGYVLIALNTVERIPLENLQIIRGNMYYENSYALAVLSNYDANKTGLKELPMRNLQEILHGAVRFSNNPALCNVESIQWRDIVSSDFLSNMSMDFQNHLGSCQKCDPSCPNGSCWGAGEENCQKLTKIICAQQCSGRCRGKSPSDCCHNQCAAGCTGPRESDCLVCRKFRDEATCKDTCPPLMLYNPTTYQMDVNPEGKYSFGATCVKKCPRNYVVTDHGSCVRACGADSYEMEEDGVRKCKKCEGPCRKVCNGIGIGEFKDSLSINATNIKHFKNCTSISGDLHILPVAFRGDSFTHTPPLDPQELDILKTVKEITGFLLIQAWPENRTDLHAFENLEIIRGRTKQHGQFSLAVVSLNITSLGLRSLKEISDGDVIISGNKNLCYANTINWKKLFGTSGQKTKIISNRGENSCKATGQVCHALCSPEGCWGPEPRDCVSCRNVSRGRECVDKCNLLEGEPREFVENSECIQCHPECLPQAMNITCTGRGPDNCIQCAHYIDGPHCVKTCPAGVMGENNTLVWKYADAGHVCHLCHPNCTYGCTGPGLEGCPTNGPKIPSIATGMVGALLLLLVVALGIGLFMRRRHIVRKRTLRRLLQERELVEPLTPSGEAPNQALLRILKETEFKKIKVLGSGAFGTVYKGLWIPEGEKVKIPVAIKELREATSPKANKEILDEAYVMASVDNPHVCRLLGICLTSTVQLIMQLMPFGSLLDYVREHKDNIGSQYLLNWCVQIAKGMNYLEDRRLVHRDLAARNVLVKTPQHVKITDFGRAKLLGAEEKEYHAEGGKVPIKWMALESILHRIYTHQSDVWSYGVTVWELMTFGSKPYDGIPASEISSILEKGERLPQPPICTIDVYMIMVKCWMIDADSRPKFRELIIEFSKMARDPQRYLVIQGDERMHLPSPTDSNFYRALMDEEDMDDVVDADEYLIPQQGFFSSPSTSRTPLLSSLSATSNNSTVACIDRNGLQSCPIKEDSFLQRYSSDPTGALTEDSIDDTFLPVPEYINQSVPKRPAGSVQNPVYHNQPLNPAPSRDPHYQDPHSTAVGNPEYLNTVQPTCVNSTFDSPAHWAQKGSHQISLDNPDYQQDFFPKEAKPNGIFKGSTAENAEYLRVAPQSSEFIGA

For the compound `CO[C@H]1CCN(c2nccc(Nc3cc4c(C(C)C)ccc(OCCn5cnnc5)c4cn3)n2)C[C@H]1F` [Example 41, 8-(2-(4H-1,2,4-triazol-4-yl)ethoxy)-N-(2-((3R,4S)-3-fluoro-4-methoxypiperidin-1-yl)pyrimidin-4-yl)-5-isopropylisoquinolin-3-amine], the values for the IC50 (on EGFR (L858R T790M C797S); in experiment [1]) were < 15 nM and 20 to 30 nM, respectively.
`Cc1noc(C)c1CCOc1ccc(C(C)C)c2cc(Nc3ccnc(N4CC[C@@H](OCCO)[C@@H](F)C4)n3)ncc12` [Example 43, 2-(((3S,4R)-1-(4-((8-(2-(3,5-dimethylisoxazol-4-yl)ethoxy)-5-isopropylisoquinolin-3-yl)amino)pyrimidin-2-yl)-3-fluoropiperidin-4-yl)oxy)ethan-1-ol]: the figures for the IC50 (at EGFR (L858R T790M C797S); in experiment [1]) were 15 to 20 nM and > 50 nM, respectively.
Turning to `[2H]C([2H])([2H])O[C@H]1CCN(c2nccc(Nc3cc4c(C(C)C)ccc(OCCn5cnnc5)c4cn3)n2)C[C@H]1F` [Example 44, 8-(2-(4H-1,2,4-triazol-4-yl)ethoxy)-N-(2-((3R,4S)-3-fluoro-4-(methoxy-d3)piperidin-1-yl)pyrimidin-4-yl)-5-isopropylisoquinolin-3-amine], the IC50 on EGFR (L858R T790M C797S) is 15 to 20 nM; in experiment [1], > 50 nM.
With `[2H]C([2H])([2H])O[C@@H]1CCN(c2nccc(Nc3cc4c(C(C)C)ccc(OCCn5cnnc5)c4cn3)n2)C[C@@H]1F` [Example 45, 8-(2-(4H-1,2,4-triazol-4-yl)ethoxy)-N-(2-((3S,4R)-3-fluoro-4-(methoxy-d3)piperidin-1-yl)pyrimidin-4-yl)-5-isopropylisoquinolin-3-amine], the figures for the IC50 (at EGFR (L858R T790M C797S); in experiment [1]) were 15 to 20 nM and > 50 nM, respectively.
On to `[2H]C([2H])([2H])O[C@H]1CCN(c2nccc(Nc3cc4c(C(C)C)ccc(OC[C@H]5CCC(=O)N5C)c4cn3)n2)C[C@H]1F` [Example 46, (R)-5-(((3-((2-((3R,4S)-3-fluoro-4-(methoxy-d3)piperidin-1-yl)pyrimidin-4-yl)amino)-5-isopropylisoquinolin-8-yl)oxy)methyl)-1-methylpyrrolidin-2-one], for which the results for the concentration for half-maximal inhibition (IC50) (on EGFR (L858R T790M C797S); in experiment [1]) were 15 to 20 nM and > 50 nM, respectively.
On to `[2H]C([2H])([2H])O[C@@H]1CCN(c2nccc(Nc3cc4c(C(C)C)ccc(OC[C@H]5CCC(=O)N5C)c4cn3)n2)C[C@@H]1F` [Example 47, (R)-5-(((3-((2-((3S,4R)-3-fluoro-4-(methoxy-d3)piperidin-1-yl)pyrimidin-4-yl)amino)-5-isopropylisoquinolin-8-yl)oxy)methyl)-1-methylpyrrolidin-2-one], for which the IC50 at EGFR (L858R T790M C797S) is 15 to 20 nM; in experiment [1], > 50 nM.
Taken in the same sequence, the figures for `[2H]C([2H])([2H])O[C@H]1CCN(c2nccc(Nc3cc4c(C(C)C)ccc(OCCn5ccnc5)c4cn3)n2)C[C@H]1F` [Example 48, 8-(2-(1H-imidazol-1-yl)ethoxy)-N-(2-((3R,4S)-3-fluoro-4-(methoxy-d3)piperidin-1-yl)pyrimidin-4-yl)-5-isopropylisoquinolin-3-amine] were 15 to 20 nM and > 50 nM.
Taken in the same sequence, the figures for `[2H]C([2H])([2H])O[C@@H]1CCN(c2nccc(Nc3cc4c(C(C)C)ccc(OCCn5ccnc5)c4cn3)n2)C[C@@H]1F` [Example 49, 8-(2-(1H-imidazol-1-yl)ethoxy)-N-(2-((3S,4R)-3-fluoro-4-(methoxy-d3)piperidin-1-yl)pyrimidin-4-yl)-5-isopropylisoquinolin-3-amine] were 15 to 20 nM and > 50 nM.
Consider `CC(C)c1ccc(OC[C@@H]2COC(=O)N2C)c2cnc(Nc3ccnc(N4CC[C@@H](OCCN(C)C)[C@@H](F)C4)n3)cc12` [Example 53, (R)-4-(((3-((2-((3S,4R)-4-(2-(dimethylamino)ethoxy)-3-fluoro-piperidin-1-yl)pyrimidin-4-yl)amino)-5-isopropylisoquinolin-8-yl)oxy)methyl)-3-methyloxazolidin-2-one], for which the IC50 at EGFR (L858R T790M C797S) was 15 to 20 nM; in experiment [1] it was > 50 nM.
As for `CNCCO[C@@H]1CCN(c2nccc(Nc3cc4c(C(C)C)ccc(OC[C@@H]5COC(=O)N5C)c4cn3)n2)C[C@@H]1F` [Example 54, (R)-4-(((3-((2-((3S,4R)-3-fluoro-4-(2-(methylamino)ethoxy)piperidin-1-yl)pyrimidin-4-yl)amino)-5-isopropylisoquinolin-8-yl)oxy)methyl)-3-methyloxazolidin-2-one], the IC50 was 15 to 20 nM at EGFR (L858R T790M C797S) and > 50 nM in experiment [1].
Regarding `CO[C@@H]1CCN(c2nccc(Nc3cc4c(C(C)C)ncc(OCCn5cnnc5)c4cn3)n2)C[C@@H]1F` [Example 55, 8-(2-(4H-1,2,4-triazol-4-yl)ethoxy)-N-(2-((3S,4R)-3-fluoro-4-methoxypiperidin-1-yl)pyrimidin-4-yl)-5-isopropyl-2,6-naphthyridin-3-amine], the IC50 at EGFR (L858R T790M C797S) is 15 to 20 nM; in experiment [1], > 50 nM.
Consider `CC(C)c1cnc(C(=O)NC2CN(C)C2)c2cnc(Nc3ccnc(N4CC[C@@H](O)[C@@](C)(F)C4)n3)cc12` [Example 59, 6-((2-((3S,4R)-3-fluoro-4-hydroxy-3-methylpiperidin-1-yl)pyrimidin-4-yl)amino)-4-isopropyl-N-(1-methylazetidin-3-yl)-2,7-naphthyridine-1-carboxamide], for which the IC50 is < 15 nM on EGFR (L858R T790M C797S) and 30 to 50 nM in experiment [1].
Regarding `CC(C)c1cnc(C(=O)NC2COC2)c2cnc(Nc3ccnc(N4CC[C@@H](O)[C@@](C)(F)C4)n3)cc12` [Example 60, 6-((2-((3S,4R)-3-fluoro-4-hydroxy-3-methylpiperidin-1-yl)pyrimidin-4-yl)amino)-4-isopropyl-N-(oxetan-3-yl)-2,7-naphthyridine-1-carboxamide], the IC50 at EGFR (L858R T790M C797S) was 15 to 20 nM; in experiment [1], 30 to 50 nM.
Regarding `CC(C)c1cnc(C(=O)NCCF)c2cnc(Nc3ccnc(N4CC[C@@H](O)[C@@](C)(F)C4)n3)cc12` [Example 62, 6-((2-((3S,4R)-3-fluoro-4-hydroxy-3-methylpiperidin-1-yl)pyrimidin-4-yl)amino)-N-(2-fluoroethyl)-4-isopropyl-2,7-naphthyridine-1-carboxamide], the IC50 was < 15 nM on EGFR (L858R T790M C797S) and > 50 nM in experiment [1].
Taken in the same sequence, the figures for `CNC(=O)c1ncc(C(C)C)c2cc(Nc3ccnc(N4CC[C@@H](O)[C@@](C)(F)C4)n3)ncc12` [Example 64, 6-((2-((3S,4R)-3-fluoro-4-hydroxy-3-methylpiperidin-1-yl)pyrimidin-4-yl)amino)-4-isopropyl-N-methyl-2,7-naphthyridine-1-carboxamide] were 15 to 20 nM and > 50 nM.
With `CCNC(=O)c1ncc(C(C)C)c2cc(Nc3ccnc(N4CC[C@@H](O)[C@@](C)(F)C4)n3)ncc12` [Example 65, N-ethyl-6-((2-((3S,4R)-3-fluoro-4-hydroxy-3-methylpiperidin-1-yl)pyrimidin-4-yl)amino)-4-isopropyl-2,7-naphthyridine-1-carboxamide], the IC50 on EGFR (L858R T790M C797S) was 15 to 20 nM; in experiment [1], > 50 nM.
Regarding `COCCNC(=O)c1ncc(C(C)C)c2cc(Nc3ccnc(N4CC[C@@H](O)[C@@](C)(F)C4)n3)ncc12` [Example 66, 6-((2-((3S,4R)-3-fluoro-4-hydroxy-3-methylpiperidin-1-yl)pyrimidin-4-yl)amino)-4-isopropyl-N-(2-methoxyethyl)-2,7-naphthyridine-1-carboxamide], the IC50 was 20 to 30 nM on EGFR (L858R T790M C797S) and > 50 nM in experiment [1].
On the same counts, the results for `CC(C)c1cnc(C(=O)NCC(F)F)c2cnc(Nc3ccnc(N4CC[C@@H](O)[C@@](C)(F)C4)n3)cc12` [Example 67, N-(2,2-difluoroethyl)-6-((2-((3S,4R)-3-fluoro-4-hydroxy-3-methylpiperidin-1-yl)pyrimidin-4-yl)amino)-4-isopropyl-2,7-naphthyridine-1-carboxamide] are < 15 nM and > 50 nM.
As for `CC(C)c1cnc(C(=O)NC2CC2)c2cnc(Nc3ccnc(N4CC[C@@H](O)[C@@](C)(F)C4)n3)cc12` [Example 68, N-cyclopropyl-6-((2-((3S,4R)-3-fluoro-4-hydroxy-3-methylpiperidin-1-yl)pyrimidin-4-yl)amino)-4-isopropyl-2,7-naphthyridine-1-carboxamide], the IC50 on EGFR (L858R T790M C797S) is 15 to 20 nM; in experiment [1] it was > 50 nM.
In the case of `CC(C)NC(=O)c1ncc(C(C)C)c2cc(Nc3ccnc(N4CC[C@@H](O)[C@@](C)(F)C4)n3)ncc12` [Example 69, 6-((2-((3S,4R)-3-fluoro-4-hydroxy-3-methylpiperidin-1-yl)pyrimidin-4-yl)amino)-N,4-diisopropyl-2,7-naphthyridine-1-carboxamide], the IC50 on EGFR (L858R T790M C797S) is 20 to 30 nM; in experiment [1], > 50 nM.
Consider `CC(C)c1cnc(C(=O)NCC(C)(C)O)c2cnc(Nc3ccnc(N4CC[C@@H](O)[C@@](C)(F)C4)n3)cc12` [Example 70, 6-((2-((3S,4R)-3-fluoro-4-hydroxy-3-methylpiperidin-1-yl)pyrimidin-4-yl)amino)-N-(2-hydroxy-2-methylpropyl)-4-isopropyl-2,7-naphthyridine-1-carboxamide], for which the IC50 at EGFR (L858R T790M C797S) is 30 to 100 nM; in experiment [1], > 50 nM.
For `CC(C)c1cnc(C(=O)N[C@H](C)CF)c2cnc(Nc3ccnc(N4CC[C@@H](O)[C@@](C)(F)C4)n3)cc12` [Example 71, 6-((2-((3S,4R)-3-fluoro-4-hydroxy-3-methylpiperidin-1-yl)pyrimidin-4-yl)amino)-N-((R)-1-fluoropropan-2-yl)-4-isopropyl-2,7-naphthyridine-1-carboxamide], the IC50 at EGFR (L858R T790M C797S) was 20 to 30 nM; in experiment [1] it was > 50 nM.
